Reference: PubChem BioAssay AID328 (DTP/NCI, 2004)
Several values for one entry are separate records, joined by “and”; a condition that tells them apart may be missing. Equal entries are not always repeated. Toxic doses and inconclusive results are not listed.

System: BDF1 mice, P388 leukemia ip, median survival T/C
Assay: NCI In Vivo Anticancer Drug Screen. Data for tumor model P388 Leukemia (intraperitoneal) in B6D2F1 (BDF1) mice
Conditions: endpoint: median survival time, higher = longer survival
Summary of the method: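 Reported as T/C, where T is the survival measurement in dosed animals and C the same measurement in vehicle controls.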

[1] = dose: 25.0 mg/kg/injection, schedule: Q01DX009 (ip), vehicle: Klucel (hydroxypropylcellulose) (HPC)
[2] = dose: 25.0 mg/kg/injection, schedule: Q04DX003 (ip), vehicle: saline
[3] = dose: 50.0 mg/kg/injection, schedule: Q04DX003 (ip), vehicle: saline
[4] = dose: 100.0 mg/kg/injection, schedule: Q04DX003 (ip), vehicle: saline
[5] = dose: 50.0 mg/kg/injection, schedule: Q01DX009 (ip), vehicle: saline with Tween-80
[6] = dose: 200.0 mg/kg/injection, schedule: Q04DX003 (ip), vehicle: saline
[7] = dose: 100.0 mg/kg/injection, schedule: Q04DX003 (ip), vehicle: Klucel (hydroxypropylcellulose) (HPC)
[8] = dose: 200.0 mg/kg/injection, schedule: Q04DX003 (ip), vehicle: Klucel (hydroxypropylcellulose) (HPC)
[9] = dose: 50.0 mg/kg/injection, schedule: Q01DX009 (ip), vehicle: saline
[10] = dose: 100.0 mg/kg/injection, schedule: Q01DX009 (ip), vehicle: saline
[11] = dose: 25.0 mg/kg/injection, schedule: Q01DX009 (ip), vehicle: saline
[12] = dose: 100.0 mg/kg/injection, schedule: Q04DX003 (ip), vehicle: saline with Tween-80
[13] = dose: 100.0 mg/kg/injection, schedule: Q01DX009 (ip), vehicle: saline with Tween-80
[14] = dose: 200.0 mg/kg/injection, schedule: Q01DX009 (ip), vehicle: saline with Tween-80

In the case of `COc1ccc(C(SCC(N)C(=O)O)(c2ccccc2)c2ccc(OC)cc2)cc1` (centres undefined), the T/C (dose: 3.0 mg/kg/injection, schedule: Q01DX009 (ip), vehicle: Klucel (hydroxypropylcellulose) (HPC)) is reported as 123 % of control, the T/C (dose: 4.8 mg/kg/injection, schedule: Q04DX003 (ip), vehicle: Klucel (hydroxypropylcellulose) (HPC)) is reported as 104 % of control and the T/C (dose: 7.0 mg/kg/injection, schedule: Q01DX009 (ip), vehicle: Klucel (hydroxypropylcellulose) (HPC)) is reported as 150 % of control. For the same molecule, the T/C (dose: 7.2 mg/kg/injection, schedule: Q04DX003 (ip), vehicle: Klucel (hydroxypropylcellulose) (HPC)) was 104 % of control, the T/C (dose: 10.0 mg/kg/injection, schedule: Q01DX009 (ip), vehicle: Klucel (hydroxypropylcellulose) (HPC)) was 170 % of control and the T/C (dose: 11.0 mg/kg/injection, schedule: Q04DX003 (ip), vehicle: Klucel (hydroxypropylcellulose) (HPC)) was 122 % of control. For the same molecule, the T/C (dose: 16.0 mg/kg/injection, schedule: Q01DX009 (ip), vehicle: Klucel (hydroxypropylcellulose) (HPC)) was 154 % of control, the T/C [1] was 172 % of control and 181 % of control and the T/C [2] was 154 % of control. For the same molecule, the T/C (dose: 33.0 mg/kg/injection, schedule: Q04DX003 (ip), vehicle: saline) was 209 % of control, the T/C (dose: 35.0 mg/kg/injection, schedule: Q01DX009 (ip), vehicle: Klucel (hydroxypropylcellulose) (HPC)) was 204 % of control and the T/C [3] was 209 % of control and 213 % of control. The T/C (dose: 75.0 mg/kg/injection, schedule: Q04DX003 (ip), vehicle: saline) was 231 % of control and the T/C [4] was 95 % of control.
`COc1cc2ccc3c(c2cc1OC)C=[N+](C)CC3` was tested, and the T/C [5] was 108 % of control, the T/C [4] was 118 % of control and the T/C [6] was 118 % of control. The T/C (dose: 400.0 mg/kg/injection, schedule: Q04DX003 (ip), vehicle: saline) was 90 % of control.
In the case of `COS(=O)(=O)Oc1ccc2ccccc2c1`, the T/C [1] is reported as 98 % of control, the T/C (dose: 50.0 mg/kg/injection, schedule: Q01DX009 (ip), vehicle: Klucel (hydroxypropylcellulose) (HPC)) is reported as 100 % of control and the T/C (dose: 100.0 mg/kg/injection, schedule: Q01DX009 (ip), vehicle: Klucel (hydroxypropylcellulose) (HPC)) is reported as 108 % of control.
In the case of `O=c1[nH]c(SCc2ccc([N+](=O)[O-])cc2)nc2ccccc12`, the T/C [7] is reported as 95 % of control and the T/C [8] is reported as 90 % of control.
With `OCCCC1CCCCC1` the T/C [9] was 111 % of control, the T/C [10] was 113 % of control and the T/C (dose: 200.0 mg/kg/injection, schedule: Q01DX009 (ip), vehicle: saline) was 117 % of control.
In the case of `CCc1ccc(C2=C(O)C(=O)C(c3ccccc3)=C(O)C2=O)cc1`, the T/C (dose: 12.5 mg/kg/injection, schedule: Q01DX010 (ip), vehicle: saline) is reported as 109 % of control and the T/C (dose: 50.0 mg/kg/injection, schedule: Q01DX010 (ip), vehicle: saline) is reported as 159 % of control.
With `CCN(CC)CCCC(C)Nc1ncnc(N)c1[N+](=O)[O-]` (centres undefined) the T/C [11] was 120 % of control, the T/C [2] was 90 % of control and the T/C [9] was 120 % of control. For the same molecule, the T/C [3] was 95 % of control, the T/C [10] was 90 % of control and the T/C [4] was 100 % of control.
For `CC(C)CC(C(=O)NC1C(=O)NC(Cc2c[nH]c3ccccc23)C(=O)N/C=C\c2ccc(cc2)OC1C(C)C)N(C)C` (centres undefined), the T/C (dose: 0.1 mg/kg/injection, schedule: Q01DX010 (ip), vehicle: alcohol) was 100 % of control, the T/C (dose: 0.2 mg/kg/injection, schedule: Q01DX010 (ip), vehicle: alcohol) was 101 % of control and the T/C (dose: 0.8 mg/kg/injection, schedule: Q01DX010 (ip), vehicle: alcohol) was 123 % of control. For the same molecule, the T/C (dose: 1.0 mg/kg/injection, schedule: Q01DX009 (ip), vehicle: steriod suspending solution) was 110 % of control, the T/C (dose: 2.0 mg/kg/injection, schedule: Q01DX009 (ip), vehicle: steriod suspending solution) was 115 % of control and the T/C (dose: 4.0 mg/kg/injection, schedule: Q01DX009 (ip), vehicle: steriod suspending solution) was 105 % of control. For the same molecule, the T/C (dose: 8.0 mg/kg/injection, schedule: Q01DX009 (ip), vehicle: steriod suspending solution) was 100 % of control.
For `CS(=O)(=O)OC[C@@H](O)[C@@H](O)COS(C)(=O)=O`, the T/C [9] was 116 % of control and the T/C [10] was 107 % of control.
`Cc1cc(C)c(S(=O)(=O)O)cc1C` was tested, and the T/C (dose: 50.0 mg/kg/injection, schedule: Q04DX003 (ip), vehicle: saline with Tween-80) was 104 % of control and the T/C [12] was 100 % of control.
In the case of `O/C(=C/C(=S)S)c1ccco1`, the T/C (dose: 25.0 mg/kg/injection, schedule: Q01DX009 (ip), vehicle: water) is reported as 93 % of control, the T/C (dose: 25.0 mg/kg/injection, schedule: Q04DX003 (ip), vehicle: water) is reported as 94 % of control and the T/C (dose: 50.0 mg/kg/injection, schedule: Q01DX009 (ip), vehicle: water) is reported as 91 % of control. For the same molecule, the T/C (dose: 50.0 mg/kg/injection, schedule: Q04DX003 (ip), vehicle: water) was 93 % of control, the T/C (dose: 100.0 mg/kg/injection, schedule: Q01DX009 (ip), vehicle: water) was 92 % of control and the T/C (dose: 200.0 mg/kg/injection, schedule: Q01DX009 (ip), vehicle: water) was 102 % of control. The T/C (dose: 200.0 mg/kg/injection, schedule: Q04DX003 (ip), vehicle: water) was 93 % of control, the T/C (dose: 400.0 mg/kg/injection, schedule: Q01DX009 (ip), vehicle: water) was 93 % of control and the T/C (dose: 400.0 mg/kg/injection, schedule: Q04DX003 (ip), vehicle: water) was 97 % of control.
For `COc1ccc(NC(=O)Oc2ccccc2Cc2ccccc2)cc1`, the T/C [7] was 100 % of control and the T/C [8] was 95 % of control.
`ICC1(CI)CCCCC1` was tested, and the T/C (dose: 100.0 mg/kg/injection, schedule: Q01DX001 (ip), vehicle: saline with Tween-80) was 100 % of control and the T/C (dose: 200.0 mg/kg/injection, schedule: Q01DX001 (ip), vehicle: saline with Tween-80) was 108 % of control.
In the case of `O=S(=O)(O)C1CCCCC1O` (centres undefined), the T/C (dose: 100.0 mg/kg/injection, schedule: Q04DX002 (ip), vehicle: saline with Tween-80) is reported as 98 % of control and the T/C (dose: 200.0 mg/kg/injection, schedule: Q04DX002 (ip), vehicle: saline with Tween-80) is reported as 101 % of control.
In the case of `O=C(/C=C/c1ccc(OCc2ccccc2)cc1)c1cccc(F)c1`, the T/C [5] is reported as 100 % of control, the T/C [13] is reported as 100 % of control and the T/C [14] is reported as 92 % of control.
For `Cc1ccc(OC(=O)Nc2ccc(C(=O)O)c(O)c2)cc1`, the T/C [9] was 118 % of control, the T/C [10] was 109 % of control and the T/C [4] was 100 % of control. For the same molecule, the T/C [6] was 113 % of control.
For `COc1ccc(OC)c(C(=O)CC(O)(C(F)(F)F)C(F)(F)F)c1`, the T/C [13] was 95 % of control, the T/C [12] was 120 % of control and the T/C [14] was 108 % of control. The T/C (dose: 200.0 mg/kg/injection, schedule: Q04DX003 (ip), vehicle: saline with Tween-80) was 110 % of control, the T/C (dose: 400.0 mg/kg/injection, schedule: Q01DX009 (ip), vehicle: saline with Tween-80) was 104 % of control and the T/C (dose: 400.0 mg/kg/injection, schedule: Q04DX003 (ip), vehicle: saline with Tween-80) was 100 % of control.
For `Cc1nc(Br)c2cnccn12`, the T/C (dose: 12.5 mg/kg/injection, schedule: Q01DX009 (ip), vehicle: saline) was 118 % of control and the T/C [11] was 109 % of control.
`Nc1ncnc2oc(-c3ccccc3)c(-c3ccccc3)c12` was tested, and the T/C (dose: 6.25 mg/kg/injection, schedule: Q01DX009 (ip), vehicle: saline with Tween-80) was 100 % of control, the T/C (dose: 12.5 mg/kg/injection, schedule: Q01DX009 (ip), vehicle: saline with Tween-80) was 100 % of control and the T/C (dose: 25.0 mg/kg/injection, schedule: Q01DX009 (ip), vehicle: saline with Tween-80) was 97 % of control. For the same molecule, the T/C [5] was 92 % of control.
